Data published in US10294202B2, “Pyrrolidinones as herbicides” (FMC Corporation, priority 2013, dated 2019).

Assays:
barnyardgrass [1] = assay: Test A pre-/postemergence herbicide test; type: in vivo, Echinochloa crus-galli
Procedure, shortened: (§1)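 Greenhouse pot test with pre- and postemergence application of surfactant-containing solvent formulations. Postemergence plants were 2–10 cm, one- to two-leaf stage. Response scored visually after ~10 days, 0 (no effect) to 100 (complete control).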

kochia = assay: Test A pre-/postemergence herbicide test; type: in vivo, Kochia scoparia
Procedure, shortened: as §1

ragweed = assay: Test A pre-/postemergence herbicide test; type: in vivo, Ambrosia elatior
Procedure, shortened: as §1

ryegrass, Italian = assay: Test A pre-/postemergence herbicide test; type: in vivo, Lolium multiflorum
Procedure, shortened: as §1

giant foxtail = assay: Test A pre-/postemergence herbicide test; type: in vivo, Setaria faberii
Procedure, shortened: as §1

pigweed = assay: Test A pre-/postemergence herbicide test; type: in vivo, Amaranthus retroflexus
Procedure, shortened: as §1

wheat = assay: Test A pre-/postemergence herbicide test; type: in vivo, Triticum aestivum; conditions: Postemergence
Procedure, shortened: as §1

corn = assay: Test A pre-/postemergence herbicide test; type: in vivo, Zea mays; conditions: Postemergence
Procedure, shortened: as §1

blackgrass = assay: Test A postemergence herbicide test; type: in vivo, Alopecurus myosuroides
Procedure, shortened: (§2)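 Injury was rated visually about 10 days after treatment on a 0 (no effect) to 100 (complete control) scale, compared with untreated plants. Test chemicals were sprayed postemergence onto greenhouse plants 2–10 cm high at one to two leaves, grown in a loam–sand blend.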

galium = assay: Test A postemergence herbicide test; type: in vivo, Galium aparine
Procedure, shortened: as §2

rice = assay: Test B flooded paddy test; type: in vivo, Oryza sativa; conditions: Flood, scale of 0 to 100 where 0 is no effect and 100 is complete control
Procedure, shortened: (§3)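 Scoring: visual, compared with untreated controls, 0 = no effect through 100 = complete control, taken 13 to 15 days after treatment in the greenhouse. Compounds had been added to paddy water over soil flooded 3 cm deep at the plants' 2-leaf stage.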

sedge, umbrella = assay: Test B flooded paddy test; type: in vivo, Cyperus difformis; conditions: Flood, scale of 0 to 100 where 0 is no effect and 100 is complete control
Procedure, shortened: as §3

ducksalad = assay: Test B flooded paddy test; type: in vivo, Heteranthera limosa; conditions: Flood, scale of 0 to 100 where 0 is no effect and 100 is complete control
Procedure, shortened: as §3

barnyardgrass [2] = assay: Test B flooded paddy test; type: in vivo, Echinochloa crus-galli; conditions: Flood, scale of 0 to 100 where 0 is no effect and 100 is complete control
Procedure, shortened: as §3

[3] = 125 g ai/ha, visual rating, 0 to 100 scale, 0 no effect, 100 complete control, approximately 10 days, preemergence
[4] = Postemergence, 125 g ai/ha, 0 to 100 scale, 0 is no effect, 100 is complete control
[5] = preemergence, 500 g ai/ha, 0 to 100 scale, 0 is no effect and 100 is complete control
[6] = 125 g ai/ha, 0 to 100 scale, 0 is no effect, 100 is complete control
[7] = Postemergence, 125 g ai/ha, visual rating on 0 to 100 scale (0 no effect, 100 complete control), approx. 10 days
[8] = Postemergence, 500 g ai/ha, 0 to 100 scale (0 no effect, 100 complete control)
[9] = Preemergence, 125 g ai/ha, 0 to 100 scale where 0 is no effect and 100 is complete control
[10] = Preemergence, 500 g ai/ha, visual rating on 0 to 100 scale (0 no effect, 100 complete control)
[11] = 125 g ai/ha, visual rating on 0 to 100 scale (0 no effect, 100 complete control), approx. 10 days
[12] = 500 g ai/ha, 0 to 100 scale (0 no effect, 100 complete control)

Q: With `O=C1NCC(c2ccc(-c3ccccc3C(F)(F)F)cc2)C1C(=O)Nc1cccc(F)c1F` (stereo not drawn) [Compound 236] as the compound, how does the “Plant response rating, Barnyardgrass” value (barnyardgrass [1]; [3]) read?
A: The value was 0.

Q: What about the “Plant response rating, Barnyardgrass” value (barnyardgrass [1]; [4]) of the same compound?
A: Its value is 0.

Q: What about the “Barnyardgrass plant response rating (0 to 100 scale, 0 is no effect, 100 is complete control)” value (barnyardgrass [1]; Postemergence, 500 g ai/ha) of the same compound?
A: The value was 0.

Q: And the “Plant response rating, Barnyardgrass” value (barnyardgrass [1]; [5])?
A: Its value is 0.

Q: What about the “Plant response rating, Kochia” value (kochia; [3]) of the same compound?
A: Its value is 0.

Q: And the “Plant response rating, Kochia” value (kochia; [4])?
A: Its value is 0.

Q: What about the “Kochia plant response rating (0 to 100 scale, 0 is no effect, 100 is complete control)” value (kochia; Postemergence, 500 g ai/ha) of the same compound?
A: Its value is 0.

Q: What about the “Plant response rating, Kochia” value (kochia; [5]) of the same compound?
A: Its value is 0.

Q: What about the “Plant response rating, Ragweed” value (ragweed; [3]) of the same compound?
A: The value was 0.

Q: And the “Plant response rating, Ragweed” value (ragweed; [4])?
A: Its value is 0.

Q: And the “Ragweed plant response rating (0 to 100 scale, 0 is no effect, 100 is complete control)” value (ragweed; Postemergence, 500 g ai/ha)?
A: Its value is 0.

Q: And the “Plant response rating, Ragweed” value (ragweed; [5])?
A: Its value is 30.

Q: And the “Plant response rating, Ryegrass, Italian” value (ryegrass, Italian; [3])?
A: Its value is 0.

Q: What about the “Plant response rating, Ryegrass, Italian” value (ryegrass, Italian; [4]) of the same compound?
A: Its value is 0.

Q: And the “Ryegrass, Italian plant response rating (0 to 100 scale, 0 is no effect, 100 is complete control)” value (ryegrass, Italian; Postemergence, 500 g ai/ha)?
A: Its value is 0.

Q: What about the “Plant response rating, Ryegrass, Italian” value (ryegrass, Italian; [5]) of the same compound?
A: The value was 50.

Q: And the “Plant response rating, Foxtail, Giant” value (giant foxtail; [3])?
A: The value was 0.

Q: What about the “Plant response rating, Foxtail, Giant” value (giant foxtail; [4]) of the same compound?
A: Its value is 0.

Q: And the “Foxtail, Giant plant response rating (0 to 100 scale, 0 is no effect, 100 is complete control)” value (giant foxtail; Postemergence, 500 g ai/ha)?
A: Its value is 0.

Q: And the “Plant response rating, Foxtail, Giant” value (giant foxtail; [5])?
A: The value was 0.

Q: And the “Plant response rating, Pigweed” value (pigweed; [3])?
A: Its value is 0.

Q: What about the “Plant response rating, Pigweed” value (pigweed; [4]) of the same compound?
A: Its value is 0.

Q: What about the “Pigweed plant response rating (0 to 100 scale, 0 is no effect, 100 is complete control)” value (pigweed; Postemergence, 500 g ai/ha) of the same compound?
A: Its value is 0.

Q: What about the “Plant response rating, Pigweed” value (pigweed; [5]) of the same compound?
A: The value was 0.

Q: And the “Plant response rating, Wheat” value (wheat; [6])?
A: The value was 0.

Q: And the “Wheat plant response rating (0 to 100 scale, 0 is no effect, 100 is complete control)” value (wheat; 500 g ai/ha)?
A: Its value is 0.

Q: What about the “Plant response rating, Corn” value (corn; [6]) of the same compound?
A: Its value is 0.

Q: What about the “Corn plant response rating (0 to 100 scale, 0 is no effect, 100 is complete control)” value (corn; 500 g ai/ha) of the same compound?
A: The value was 0.

Q: What about the “Plant response rating, Blackgrass” value (blackgrass; [6]) of the same compound?
A: The value was 0.

Q: What about the “Blackgrass plant response rating (0 to 100 scale, 0 is no effect, 100 is complete control)” value (blackgrass; 500 g ai/ha) of the same compound?
A: Its value is 0.

Q: And the “Plant response rating, Galium” value (galium; [6])?
A: The value was 0.

Q: What about the “Galium plant response rating (0 to 100 scale, 0 is no effect, 100 is complete control)” value (galium; 500 g ai/ha) of the same compound?
A: The value was 0.

Q: What about the “Plant response rating, Rice” value (rice; 1000 g ai/ha) of the same compound?
A: Its value is 0.

Q: And the “Plant response rating, Sedge, Umbrella” value (sedge, umbrella; 1000 g ai/ha)?
A: The value was 0.

Q: What about the “Plant response rating, Ducksalad” value (ducksalad; 1000 g ai/ha) of the same compound?
A: The value was 70.

Q: What about the “Plant response rating, Barnyardgrass” value (barnyardgrass [2]; 1000 g ai/ha) of the same compound?
A: Its value is 40.

Q: `O=C1NCC(c2cccc(-n3ccc(C(F)(F)F)n3)c2)C1C(=O)Nc1ccccc1C(F)(F)F` (stereo not drawn) [Compound 329] was tested. Which “Plant response rating, Barnyardgrass” value (barnyardgrass [1]; [7]) did it give?
A: Its value is 0.

Q: And the “Plant response rating, Barnyardgrass” value (barnyardgrass [1]; [8])?
A: The value was 0.

Q: What about the “Plant response rating, Barnyardgrass” value (barnyardgrass [1]; [9]) of the same compound?
A: Its value is 0.

Q: And the “Barnyardgrass plant response rating” value (barnyardgrass [1]; [10])?
A: The value was 0.

Q: What about the “Plant response rating, Kochia” value (kochia; [7]) of the same compound?
A: The value was 0.

Q: What about the “Plant response rating, Kochia” value (kochia; [8]) of the same compound?
A: Its value is 0.

Q: And the “Plant response rating, Kochia” value (kochia; [9])?
A: Its value is 0.

Q: What about the “Kochia plant response rating” value (kochia; [10]) of the same compound?
A: Its value is 0.

Q: And the “Plant response rating, Ragweed” value (ragweed; [7])?
A: Its value is 0.

Q: What about the “Plant response rating, Ragweed” value (ragweed; [8]) of the same compound?
A: Its value is 0.

Q: What about the “Plant response rating, Ragweed” value (ragweed; [9]) of the same compound?
A: The value was 0.

Q: And the “Ragweed plant response rating” value (ragweed; [10])?
A: The value was 0.

Q: What about the “Plant response rating, Ryegrass, Italian” value (ryegrass, Italian; [7]) of the same compound?
A: The value was 0.

Q: And the “Plant response rating, Ryegrass, Italian” value (ryegrass, Italian; [8])?
A: Its value is 0.

Q: And the “Plant response rating, Ryegrass, Italian” value (ryegrass, Italian; [9])?
A: The value was 0.

Q: And the “Ryegrass, Italian plant response rating” value (ryegrass, Italian; [10])?
A: Its value is 0.

Q: And the “Plant response rating, Foxtail, Giant” value (giant foxtail; [7])?
A: Its value is 0.

Q: And the “Plant response rating, Foxtail, Giant” value (giant foxtail; [8])?
A: Its value is 30.

Q: And the “Plant response rating, Foxtail, Giant” value (giant foxtail; [9])?
A: The value was 0.

Q: What about the “Foxtail, Giant plant response rating” value (giant foxtail; [10]) of the same compound?
A: Its value is 60.

Q: And the “Plant response rating, Pigweed” value (pigweed; [7])?
A: The value was 0.

Q: What about the “Plant response rating, Pigweed” value (pigweed; [8]) of the same compound?
A: The value was 0.

Q: And the “Plant response rating, Pigweed” value (pigweed; [9])?
A: The value was 0.

Q: And the “Pigweed plant response rating” value (pigweed; [10])?
A: Its value is 0.

Q: What about the “Plant response rating, Wheat” value (wheat; [11]) of the same compound?
A: The value was 0.

Q: And the “Plant response rating, Wheat” value (wheat; [12])?
A: The value was 0.

Q: What about the “Plant response rating, Corn” value (corn; [11]) of the same compound?
A: The value was 0.

Q: And the “Plant response rating, Corn” value (corn; [12])?
A: Its value is 0.

Q: What about the “Plant response rating, Blackgrass” value (blackgrass; [11]) of the same compound?
A: The value was 0.

Q: What about the “Plant response rating, Blackgrass” value (blackgrass; [12]) of the same compound?
A: Its value is 0.

Q: What about the “Plant response rating, Galium” value (galium; [11]) of the same compound?
A: The value was 0.

Q: What about the “Plant response rating, Galium” value (galium; [12]) of the same compound?
A: Its value is 0.

Q: And the “Plant response rating, Rice” value (rice; 500 g ai/ha)?
A: The value was 0.

Q: And the “Plant response rating, Sedge, Umbrella” value (sedge, umbrella; 500 g ai/ha)?
A: The value was 0.

Q: And the “Plant response rating, Ducksalad” value (ducksalad; 500 g ai/ha)?
A: Its value is 0.

Q: What about the “Plant response rating, Barnyardgrass” value (barnyardgrass [2]; 500 g ai/ha) of the same compound?
A: Its value is 0.
